According to BindingDB's records for doi:10.1021/bi300955k (Dalhousie University, 2012):

Legend:
Acetylcholinesterase = Acetylcholinesterase (Homo sapiens, UniProt P22303); experiment: Inhibition Assay
Source text: (§1) Inhibition constant using AChE or BuChE.

Cholinesterase = Cholinesterase (Homo sapiens, UniProt P06276); experiment: Inhibition Assay
Source text: as §1

Cholinesterase, sequence (P06276 whole entry): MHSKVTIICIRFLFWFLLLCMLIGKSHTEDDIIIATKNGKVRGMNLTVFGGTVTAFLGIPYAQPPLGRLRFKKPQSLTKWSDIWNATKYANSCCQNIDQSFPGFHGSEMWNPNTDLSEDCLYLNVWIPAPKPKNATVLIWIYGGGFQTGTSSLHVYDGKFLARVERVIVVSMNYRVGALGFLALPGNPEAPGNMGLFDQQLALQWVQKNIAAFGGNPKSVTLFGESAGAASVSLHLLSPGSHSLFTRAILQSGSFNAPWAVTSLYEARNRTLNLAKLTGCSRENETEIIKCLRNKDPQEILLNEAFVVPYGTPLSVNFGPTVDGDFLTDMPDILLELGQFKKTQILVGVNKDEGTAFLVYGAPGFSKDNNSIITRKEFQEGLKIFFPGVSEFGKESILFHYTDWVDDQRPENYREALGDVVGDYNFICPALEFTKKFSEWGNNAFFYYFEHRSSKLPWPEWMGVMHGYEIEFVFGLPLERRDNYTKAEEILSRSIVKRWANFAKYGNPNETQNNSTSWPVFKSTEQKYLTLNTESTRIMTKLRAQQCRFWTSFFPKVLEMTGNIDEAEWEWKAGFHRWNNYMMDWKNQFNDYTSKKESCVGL
Acetylcholinesterase, sequence (P22303 whole entry): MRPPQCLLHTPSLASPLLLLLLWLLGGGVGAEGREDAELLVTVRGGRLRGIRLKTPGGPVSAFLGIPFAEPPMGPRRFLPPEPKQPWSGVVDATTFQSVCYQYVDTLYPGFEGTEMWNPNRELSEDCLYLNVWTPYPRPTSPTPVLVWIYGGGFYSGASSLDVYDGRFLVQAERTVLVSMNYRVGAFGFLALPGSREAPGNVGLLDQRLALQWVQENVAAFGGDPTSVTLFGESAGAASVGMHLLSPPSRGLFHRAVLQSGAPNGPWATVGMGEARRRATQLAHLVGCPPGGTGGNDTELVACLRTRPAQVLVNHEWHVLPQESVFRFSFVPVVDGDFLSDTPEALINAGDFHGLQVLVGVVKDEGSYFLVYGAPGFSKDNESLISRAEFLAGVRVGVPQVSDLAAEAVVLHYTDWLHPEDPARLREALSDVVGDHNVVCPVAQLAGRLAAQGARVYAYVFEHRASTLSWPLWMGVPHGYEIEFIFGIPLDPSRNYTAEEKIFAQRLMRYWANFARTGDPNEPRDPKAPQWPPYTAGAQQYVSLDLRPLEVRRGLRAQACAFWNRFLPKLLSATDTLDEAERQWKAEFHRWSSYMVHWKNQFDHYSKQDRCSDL

SMILES | Ki (Acetylcholinesterase) | Ki (Cholinesterase)
CC(C)N(CCNC(=O)N1c2ccccc2Sc2ccccc21)C(C)C | 1640 nM | 21 nM
O=C(c1c2ccccc2cc2ccccc12)N1c2ccccc2Sc2ccccc21 [Anthracen-9-yl (10H-phenothiazine-10yl) methanone, 5] |  | 16 nM
CC[N+](C)(C)c1cccc(O)c1 [Edrophonium Chloride, 3] |  | 198000 nM
Cc1ccc2c(c1)sc(-c1ccc(N(C)C)cc1)[n+]2C [Thioflavin T, 1] | 4990 nM | 3620 nM
